Measurements taken from the NIST ThermoML archive (doi:10.1016/j.fluid.2009.12.009).

Assay: xn = mol fraction of the nth substance listed
Settings: 298.15 K, 101 kPa, Liquid, holographic laser-interferometry using flow junction cell

Compound	binary diffusion coefficient (x1 = 0.004) [m2/s]	binary diffusion coefficient (x1 = 0.1) [m2/s]	binary diffusion coefficient (x1 = 0.3) [m2/s]	binary diffusion coefficient (x1 = 0.5) [m2/s]	binary diffusion coefficient (x1 = 0.7) [m2/s]	binary diffusion coefficient (x1 = 0.9) [m2/s]	binary diffusion coefficient (x1 = 0.975) [m2/s]	binary diffusion coefficient (x1 = 0.015) [m2/s]	binary diffusion coefficient (x1 = 0.2) [m2/s]	binary diffusion coefficient (x1 = 0.4) [m2/s]	binary diffusion coefficient (x1 = 0.6) [m2/s]	binary diffusion coefficient (x1 = 0.8) [m2/s]	binary diffusion coefficient (x1 = 0.985) [m2/s]	binary diffusion coefficient (x1 = 0.0125) [m2/s]	binary diffusion coefficient (x1 = 0.9915) [m2/s]	binary diffusion coefficient (x1 = 0.9925) [m2/s]	binary diffusion coefficient (x1 = 0.013) [m2/s]	binary diffusion coefficient (x1 = 0.97) [m2/s]	binary diffusion coefficient (x1 = 0.002) [m2/s]	binary diffusion coefficient (x1 = 0.05) [m2/s]
CC(C)=O [acetone] + O	1.25e-09	8e-10	6.3e-10	8.3e-10	1.63e-09	3.44e-09	4.62e-09													
CC(C)=O [acetone] + CCCO		1.22e-09	1.4e-09	1.64e-09	1.98e-09	2.67e-09		1.14e-09	1.33e-09	1.49e-09	1.74e-09	2.4e-09	3.12e-09							
CC(C)=O [acetone] + CCCCO		1e-09	1.13e-09	1.38e-09	1.72e-09	2.43e-09			1.07e-09	1.29e-09	1.49e-09	1.85e-09		9.5e-10	2.75e-09	2.73e-09				
CCCCCl [1-chlorobutane] + CCCO		1.18e-09	1.13e-09	1.09e-09	1.14e-09	1.45e-09											1.2e-09	2.51e-09		
CCCO [propan-1-ol] + O		1.7e-10				5.3e-10			1e-10	1.9e-10	3.3e-10	5e-10							1.04e-09	5.2e-10
